Measured values: patent US8481459B2, “Chemical inhibitors of ethylene biosynthesis” (Academia Sinica, priority 2010, dated 2013)

Tested on: gene expression in etiolated eto1-4 seedlings
Test: Transcriptional profiling (ATH1 GeneChip microarray) of etiolated eto1-4 seedlings
Type: in vivo, Arabidopsis thaliana
Settings: ratio eto1-4 treated to eto1-4 (no treatment)
Protocol: For chemical treatments, seeds were sown on 0.5×MS agar medium supplemented with 10 μM chemicals (AVG, compounds 9393, 9370, and 7303) or DMSO (as control). Arabidopsis seeds were stratified in the dark at 4° C. for 4 days, then germinated in the dark for 3 days at 22° C. Approximately 2,000 etiolated seedlings of the wild type or eto1-4 were used to collect tissues for preparation of total RNA in each microarray experiment with Arabidopsis ATH1 GeneChip (Affymetrix). Extraction of RNA followed an established protocol (Chang, et al. (1993) Plant Mol. Biol. Rep. 11, 113-117). Total RNA (10 μg) was used to prepare biotinylated cRNA for hybridization to ATH1 GeneChip in the experiments disclosed herein. Experiments were repeated by 2 independent biological duplicates, and candidate genes present in both experiments were selected for further analysis. The MASS method was used for data analysis and normalization by all sample medium. Candidate genes were selected by the following criteria. First, genes with 1.5-fold differential expression between the wild type and eto1-4 were selected as the master gene pool, which was then used for comparison in treatments with AVG and individual exemplary compounds. Data were presented in hierarchical clustering and Venn diagram format. Agilent GeneSpring GX and Bioconductor software were used to analyze the expression profile data. Gene Ontology descriptions were generated by GeneSpring GX and further referred to the TAR GO database. Raw data are available in the GEO database (http://www.ncbi.nlm.nih.gov/geo) with Accession no. GSE20897.
The filtered and normalized expression data set from 22810 probes on the ATH1 Genechip was used for hierarchical clustering of gene expression profiles for comparison between AVG and the exemplary invention compounds in eto1-4. It was identified that 1,446 genes show at least 1.5-fold difference in expression between the WT and eto1-4 and used them as the master gene pool for clustering analysis (FIG. 7A). […] These genes likely contribute to the etiolated phenotype of eto1-4 by responding to elevated endogenous ethylene. To determine whether the exemplary compounds have specific r overlapping functions with AVG to suppress the eto1-4 phenotype, genes that are regulated by individual exemplary invention compounds and AVG for Venn diagram analysis were clustered (FIG. 7B). More than 63% of genes (356/561 for compound 9393; 389/561 for compound 9370; 399/561 for compound 7303; FIG. 7B) with expression associated with AVG were co-regulated by the exemplary invention compounds, which indicates an overlap function in suppression of the ethylene phenotype in eto1-4. […] Next genes co-regulated by all of the exemplary invention compounds and AVG were examined by performing a clustering analysis using the co-regulated genes identified in FIG. 7B: 356 (compound 9393 vs AVG), 389 (compound 9370 vs AVG) and 399 genes (compound 7303 vs AVG). It was uncovered that 276 genes were co-regulated by all of the exemplary invention compounds and AVG (FIG. 7C and Table 2). On the basis of GO descriptions generated by Gene Spring GX and TAIR database, the 276 genes were divided into subgroups related to their biological functions (Table 2). […] In addition, stress- and pathogenesis-related genes were among the co-regulated genes, possibly because ethylene is involved in both biotic and abiotic stresses.
Genes (1446 non-redundant loci) were selected by 1.5-fold differential expression between eto1-4 and WT as the master pool for analysis. These genes were used for comparison between chemical treatments by AVG and the exemplary invention compounds. The finalized 276 genes that are co-regulated by AVG and all of the exemplary invention compounds are shown. Locus ID also present in Nemhauser et al. (Nemhauser, et al. (2006) Cell 126, 467-475).

CC1(C)CC(=O)c2cnc(NC3CCCC3)nc2C1 [Compound 9393]
Signal Fold Change AT3G14850, unknown biological function: 0.29 | Signal Fold Change AT3G15890 protein kinase: 1.98 | Signal Fold Change AT3G16450 jacalin lectin protein: 2.09 | Signal Fold Change AT3G16470 jacalin lectin protein: 4.09 | Signal Fold Change AT3G16690, unknown biological function: 3.33 | Signal Fold Change AT3G17680, unknown biological function: 0.33 | Signal Fold Change AT3G20130 cytochrome P450: 1.72 | Signal Fold Change AT3G21770 peroxidase 30: 1.57 | Signal Fold Change AT3G22620 lipid transfer protein: 1.94 | Signal Fold Change AT3G23150 ethylene receptor, putative (ETR2): 0.15 | Signal Fold Change AT3G23800, unknown biological function: 0.46 | Signal Fold Change AT3G24670, unknown biological function: 0.32 | Signal Fold Change AT3G25710 bHLH protein: 2.27 | Signal Fold Change AT3G25730 AP2-containing transcription factor: 0.26 | Signal Fold Change AT3G25980 mitotic spindle checkpoint protein: 2.35 | Signal Fold Change AT3G27580 protein kinase: 0.48 | Signal Fold Change AT3G28290, unknown biological function: 0.29 | Signal Fold Change AT3G29250 short-chain dehydrogenase: 4.05 | Signal Fold Change AT3G30775 proline oxidase, mitochondrial: 2.13 | Signal Fold Change AT3G43270 pectinesterase protein: 0.26 | Signal Fold Change AT3G44820, response to light stimulus, phototropic-responsive NPH3 protein: 2.81 | Signal Fold Change AT3G44990 endo-xyloglucan transferase: 0.28 | Signal Fold Change AT3G45710 proton-dependent oligopeptide transport (POT) protein: 1.98 | Signal Fold Change AT3G46130 myb transcription factor (MYB48): 2.63 | Signal Fold Change AT3G46700 UDP-glucosyl transferase: 3.09 | Signal Fold Change AT3G47210, unknown biological function: 2.53 | Signal Fold Change AT3G47250, unknown biological function: 3.68 | Signal Fold Change AT3G49780 phytosulfokines 3 (PSK3): 4.97 | Signal Fold Change AT3G50660 steroid 22-alpha-hydroxylase: 4.32 | Signal Fold Change AT3G51410, unknown biological function: 0.32 | Signal Fold Change AT3G51970, unknown biological function: 2.49 | Signal Fold Change AT3G52180 protein tyrosine phosphatase: 0.32 | Signal Fold Change AT3G52920 expressed protein (defense response): 3.09 | Signal Fold Change AT3G53540, unknown biological function: 0.38 | Signal Fold Change AT3G56480, unknown biological function: 2.21 | Signal Fold Change AT3G58710 WRKY transcription factor: 2.14 | Signal Fold Change AT3G59370, unknown biological function: 2.91 | Signal Fold Change AT3G59710 short-chain dehydrogenase: 0.39 | Signal Fold Change AT3G59900, unknown biological function: 0.43 | Signal Fold Change AT3G60520, unknown biological function: 0.27 | Signal Fold Change AT3G61160 shaggy-related protein kinase beta/ASK-beta (ASK2): 3.26 | Signal Fold Change AT4G00730 anthocyaninless2: 0.55 | Signal Fold Change AT4G01410, unknown biological function: 0.40 | Signal Fold Change AT4G03140 short-chain dehydrogenase: 0.41 | Signal Fold Change AT4G08300, unknown biological function: 3.06 | Signal Fold Change AT4G09570 calcium-dependent protein kinase: 0.36 | Signal Fold Change AT4G10910, unknown biological function: 4.86 | Signal Fold Change AT4G11190 disease resistance-responsive protein: 5.56 | Signal Fold Change AT4G11280 ACC synthase 6: 1.87 | Signal Fold Change AT4G11310 cysteine proteinase: 8.01 | Signal Fold Change AT4G12080, unknown biological function: 1.88 | Signal Fold Change AT4G12410 auxin-responsive protein: 2.76 | Signal Fold Change AT4G12480 lipid transfer protein: 0.20 | Signal Fold Change AT4G13210, unknown biological function: 0.29 | Signal Fold Change AT4G15550 UDP-glucose:indole-3-acetate beta-D-glucosyltransferase: 0.36 | Signal Fold Change AT4G15920, unknown biological function: 13.52 | Signal Fold Change AT4G17220 expressed protein (cytoskeleton organization and biogenesis): 2.49 | Signal Fold Change AT4G18340 glycosyl hydrolase: 2.57 | Signal Fold Change AT4G23410 senescence-associated protein: 1.97 | Signal Fold Change AT4G25780, unknown biological function: 9.02 | Signal Fold Change AT4G26010 peroxidase: 0.45 | Signal Fold Change AT4G28085, unknown biological function: 2.86 | Signal Fold Change AT4G31000, unknown biological function: 0.55 | Signal Fold Change AT4G32920, unknown biological function: 2.39 | Signal Fold Change AT4G34560, unknown biological function: 2.00 | Signal Fold Change AT4G34760 auxin-responsive protein: 0.20 | Signal Fold Change AT4G35060 copper chaperone: 3.14 | Signal Fold Change AT4G35150, unknown biological function: 0.32 | Signal Fold Change AT4G36520, unknown biological function: 2.71 | Signal Fold Change AT4G37220 stress-responsive protein: 7.29 | Signal Fold Change AT4G38690, signal transduction, 1-phosphatidylinositol: 2.55 | Signal Fold Change AT4G39210 ADP-glucose pyrophosphorylase: 0.44 | Signal Fold Change AT4G39800 inositol-3-phosphate synthase isozyme 1: 2.16 | Signal Fold Change AT4G39840, unknown biological function: 0.37 | Signal Fold Change AT5G01210, unknown biological function: 0.33 | Signal Fold Change AT5G01300, unknown biological function: 1.40 | Signal Fold Change AT5G02260, cell wall organization and biogenesis, expansin (EXP9): 0.16 | Signal Fold Change AT5G02540 short-chain dehydrogenase: 0.17 | Signal Fold Change AT5G03160 DNAJ heat shock N-terminal domain-containing protein: 1.90 | Signal Fold Change AT5G04080, unknown biological function: 2.48 | Signal Fold Change AT5G05180, unknown biological function: 1.79 | Signal Fold Change AT5G06200, unknown biological function: 1.94 | Signal Fold Change AT5G08240, unknown biological function: 1.79 | Signal Fold Change AT5G08260 serine carboxypeptidase S10 protein: 0.50 | Signal Fold Change AT5G08370 alpha-galactosidase: 2.77 | Signal Fold Change AT5G09980 expressed protein (defense response): 0.35 | Signal Fold Change AT5G10720 sensory transduction histidine kinase: 0.48 | Signal Fold Change AT5G11540, unknown biological function: 5.32 | Signal Fold Change AT5G12170, response to cadmium ion, expressed protein: 0.36 | Signal Fold Change AT5G13870 endo-xyloglucan transferase: 0.27 | Signal Fold Change AT5G13910 AP2/EREBP-like transcription factor: 0.46 | Signal Fold Change AT5G14780 formate dehydrogenase: 0.44 | Signal Fold Change AT5G14920 gibberellin-regulated protein: 0.35 | Signal Fold Change AT5G15290, unknown biological function: 2.43 | Signal Fold Change AT5G15530 biotin carboxyl carrier protein 2: 0.54 | Signal Fold Change AT5G15830 bZIP transcription factor protein: 3.94 | Signal Fold Change AT5G18470, unknown biological function: 0.13 | Signal Fold Change AT5G18670 beta-amylase: 0.50 | Signal Fold Change AT5G18860, unknown biological function: 2.02 | Signal Fold Change AT5G18970, unknown biological function: 2.49 | Signal Fold Change AT5G19890 peroxidase: 0.13 | Signal Fold Change AT5G19930, unknown biological function: 1.64 | Signal Fold Change AT5G20410 monogalactosyldiacylglycerol synthase: 2.77 | Signal Fold Change AT5G22310, unknown biological function: 0.37 | Signal Fold Change AT5G22860 serine carboxypeptidase S28 protein: 2.63 | Signal Fold Change AT5G23750, unknown biological function: 3.60 | Signal Fold Change AT5G24870, unknown biological function: 2.16 | Signal Fold Change AT5G25140 cytochrome P450: 4.21 | Signal Fold Change AT5G25160 zinc finger (C2H2 type) protein: 2.60 | Signal Fold Change AT5G25190 ethylene-responsive element-binding protein: 0.32 | Signal Fold Change AT5G34940, unknown biological function: 0.49 | Signal Fold Change AT5G37300, unknown biological function: 3.86 | Signal Fold Change AT5G38930, unknown biological function: 0.33 | Signal Fold Change AT5G39860 bHLH protein: 2.39 | Signal Fold Change AT5G41900 hydrolase: 2.67 | Signal Fold Change AT5G44410, unknown biological function: 3.37 | Signal Fold Change AT5G44580, unknown biological function: 0.22 | Signal Fold Change AT5G46890 lipid transfer protein: 3.64 | Signal Fold Change AT5G47240, unknown biological function: 3.96 | Signal Fold Change AT5G47330 palmitoyl protein thioesterase protein: 2.52 | Signal Fold Change AT5G47450 major intrinsic protein: 2.24 | Signal Fold Change AT5G47950, unknown biological function: 1.93 | Signal Fold Change AT5G48490 lipid transfer protein: 9.12 | Signal Fold Change AT5G48900, unknown biological function: 0.55 | Signal Fold Change AT5G49900, unknown biological function: 2.24 | Signal Fold Change AT5G50720 ABA-responsive protein (HVA22e): 2.52 | Signal Fold Change AT5G52120 SKP1 interacting partner 3 protein: 5.39 | Signal Fold Change AT5G53190, unknown biological function: 4.35 | Signal Fold Change AT5G53830, unknown biological function: 0.40 | Signal Fold Change AT5G56320, cell wall organization and biogenesis, expansin (EXP14): 3.15 | Signal Fold Change AT5G58660, unknown biological function: 0.34 | Signal Fold Change AT5G59540 oxidoreductase: 0.44 | Signal Fold Change AT5G63450 cytochrome P450: 6.43 | Signal Fold Change AT5G63650 serine/threonine protein kinase: 0.42 | Signal Fold Change AT5G65970 seven transmembrane MLO protein: 2.60 | Signal Fold Change AT5G66310, microtubule-based movement, kinesin motor protein: 0.48 | Signal Fold Change AT5G66400 dehydrin (RAB18): 1.09 | Signal Fold Change AT5G66440, unknown biological function: 0.30 | Signal Fold Change AT5G66460 (1-4)-beta-mannan endohydrolase: 0.51 | Signal Fold Change AT5G66780, unknown biological function: 0.78
